Data taken from PMC11482831 (bioRxiv, 2024).
Bridge positions count the residues as written; N and C are the ends. Ends that are not written are not given here.

Key:
[1] = cited from earlier work
[2] = system: AMY2R (HiBiT-CTR:mCitrine-RAMP2); experiment: CTR:RAMP cell surface proximity BRET assay, AMY2R; format: cell-based, human; settings: 300 nM agonist, HEK293 cells, room temperature, 30 min, pH 7.4
AMY2R (CTR:RAMP2) = experiment: Native PAGE mobility shift assay, single-point, AMY2R; format: biochemical, human; settings: 10 μM agonist, no mGs, detergent-solubilized (LMNG/CHS), in-gel mCitrine fluorescence, qualitative, three replicates
CTR:R3 (AMY3R) = target: T1, CTR:R3 (AMY3R) (Homo sapiens, UniProt O60896+P30988); settings: 50 μM SUMO-miniGs, agonist titration
T1 sequence (P30988 25-474): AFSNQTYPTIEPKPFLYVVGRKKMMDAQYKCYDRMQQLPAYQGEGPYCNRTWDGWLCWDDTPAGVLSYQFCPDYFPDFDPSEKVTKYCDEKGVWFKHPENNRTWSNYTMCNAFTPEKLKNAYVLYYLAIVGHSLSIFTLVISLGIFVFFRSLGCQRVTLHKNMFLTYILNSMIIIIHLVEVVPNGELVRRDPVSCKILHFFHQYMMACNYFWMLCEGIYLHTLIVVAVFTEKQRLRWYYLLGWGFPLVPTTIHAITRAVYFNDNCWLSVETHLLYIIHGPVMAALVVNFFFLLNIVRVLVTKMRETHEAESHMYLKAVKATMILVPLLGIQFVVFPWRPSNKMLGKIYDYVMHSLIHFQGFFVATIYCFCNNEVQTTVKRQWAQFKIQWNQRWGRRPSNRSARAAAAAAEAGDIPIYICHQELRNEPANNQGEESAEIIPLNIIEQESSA
T1 sequence (O60896 25-148): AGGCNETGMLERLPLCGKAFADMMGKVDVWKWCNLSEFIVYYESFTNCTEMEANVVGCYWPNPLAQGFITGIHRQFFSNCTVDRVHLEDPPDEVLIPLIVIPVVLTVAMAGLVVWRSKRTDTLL

CTR + RAMP1 = CTR + RAMP1 (Homo sapiens, UniProt O60894+P30988); experiment: cAMP signaling CAMYEL biosensor BRET assay in COS-7 cells, CTR + RAMP1; settings: 30 min, 37°C, vs CTR alone
CTR + RAMP1, sequence (O60894 27-148, one chain of several): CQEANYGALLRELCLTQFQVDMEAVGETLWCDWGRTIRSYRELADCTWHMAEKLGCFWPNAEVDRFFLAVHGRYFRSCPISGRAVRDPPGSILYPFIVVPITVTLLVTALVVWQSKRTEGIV

[3] = target: AMY1R (HiBiT-CTR:mCitrine-RAMP1) (Homo sapiens, UniProt O60894+P30988); experiment: CTR:RAMP cell surface proximity BRET assay, AMY1R; format: cell-based; settings: 300 nM agonist, HEK293 cells, room temperature, 30 min, pH 7.4
AMY1R (HiBiT-CTR:mCitrine-RAMP1), sequence (O60894 24-148, one chain of several): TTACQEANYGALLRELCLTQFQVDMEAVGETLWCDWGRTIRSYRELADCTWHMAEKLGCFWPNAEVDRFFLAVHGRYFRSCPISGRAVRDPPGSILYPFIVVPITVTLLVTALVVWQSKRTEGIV
CTR:R2 (AMY2R) = CTR:R2 (AMY2R) (Homo sapiens, UniProt O60895+P30988); settings: 50 μM SUMO-miniGs, agonist titration
CTR:R2 (AMY2R), sequence (O60895 55-175, one chain of several): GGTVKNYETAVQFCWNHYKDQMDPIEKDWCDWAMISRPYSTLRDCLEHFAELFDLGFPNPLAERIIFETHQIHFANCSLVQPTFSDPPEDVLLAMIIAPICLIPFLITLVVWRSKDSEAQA
CTR:R1 (AMY1R) = CTR:R1 (AMY1R) (Homo sapiens, UniProt O60894+P30988); experiment: Native PAGE agonist titration with excess SUMO-miniGs, AMY1R; settings: 50 μM SUMO-miniGs
CTR:R1 (AMY1R), sequence (O60894 24-148, one chain of several): as the sequence (O60894 24-148, one chain of several) above

CTR + RAMP3 = target: T2, CTR + RAMP3 (Homo sapiens, UniProt O60896+P30988); experiment: cAMP signaling CAMYEL biosensor BRET assay in COS-7 cells, CTR + RAMP3; settings: 30 min, 37°C
T2 sequence (P30988 25-474): T1 sequence (P30988 25-474)
T2 sequence (O60896 24-148): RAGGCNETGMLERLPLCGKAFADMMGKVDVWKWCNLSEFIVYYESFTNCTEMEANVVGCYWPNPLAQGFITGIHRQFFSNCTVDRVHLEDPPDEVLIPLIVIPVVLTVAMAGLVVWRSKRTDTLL

AMY1R (CTR:RAMP1) = experiment: Native PAGE mobility shift assay, single-point, AMY1R; format: biochemical, human; settings: 10 μM agonist, no mGs, detergent-solubilized (LMNG/CHS), in-gel mCitrine fluorescence, qualitative, three replicates
[4] = target: T3, AMY3R (HiBiT-CTR:mCitrine-RAMP3) (Homo sapiens, UniProt O60896+P30988); experiment: CTR:RAMP cell surface proximity BRET assay, AMY3R; format: cell-based; settings: 300 nM agonist, HEK293 cells, room temperature, 30 min, pH 7.4
T3 sequence (P30988 25-474): T1 sequence (P30988 25-474)

[5] = target: AMY1R on cells (HiBiT-CTR.25–474 : mCitrine-RAMP1.24–148) (human) (UniProt O60894); experiment: FRET or BRET

human αCGRP, sequence (P06881 83-119): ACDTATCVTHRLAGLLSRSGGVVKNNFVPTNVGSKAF

Subunit dissociation (increase in free RAMP3) (CTR:R3 (AMY3R)) | Change in CTR:RAMP proximity BRET signal, real-time [3] | Change in CTR:RAMP proximity BRET signal, real-time [4] | Substance | Change in CTR:RAMP proximity BRET signal, real-time [2] | Change of subunit distribution (AMY2R heterodimer / oligomers) (AMY2R (CTR:RAMP2)) | Effect on CTR-RAMP1 association/dissociation, free RAMP1 (CTR:R1 (AMY1R)) | Change of subunit distribution (free RAMP1 / AMY1R heterodimer) (AMY1R (CTR:RAMP1)) | other results
 |  |  | cagrilintide (KCNTATCATQRLAEFLRHSSNNFGPILPPTNVGSNTP; chains of the INN, looked up) |  |  |  |  | Weight loss in clinical trials ([1]; ref [9]-[12]): promote substantial weight loss
promoted AMY3R dissociation | similarly decreased it | decreased the BRET signal | human calcitonin [hCT] | a brief initial decrease followed by a gradual increase | induced formation of a higher order oligomeric species of unknown molecular composition | little or no effect on subunit association/dissociation | did not appreciably change the free RAMP1 | Quaternary complex formation (in words) (CTR:R3 (AMY3R)): little if any quaternary complex; Potency change on RAMP1 co-expression, cAMP (CTR + RAMP1): did not change hCT potency; Quaternary complex formation (in words) (CTR:R2 (AMY2R)): little if any quaternary complex; Steepness of cAMP concentration-response curve (CTR + RAMP3): steeper than the other curves; Potency change on RAMP3 co-expression, cAMP (CTR + RAMP3; vs CTR alone): decreased hCT potency
 |  |  | human αCGRP (from UniProt P06881 83-119) (peptide) |  |  |  |  | EC50 [5]: 30 nM
 |  |  | pramlintide (KCNTATCATQRLANFLVHSSNNFGPILPPTNVGSNTY-NH2; disulfide 2-7; UniProt P10997 34-70, looked up, variant A25P S28P S29P) |  |  |  |  | Insulin adjunct therapy, glycemic control ([1]; ref [8]): improved glycemic control
 |  | no effect | rat amylin [rAmylin] |  | appeared to increase the amount of AMY2R heterodimer | decreased free RAMP1 with increasing agonist | reduced free RAMP1 and increased the amount of the AMY1R heterodimer | 
promoted AMY3R dissociation | similarly decreased it | decreased the BRET signal | salmon calcitonin [sCT] | a brief initial decrease followed by a gradual increase | induced formation of a higher order oligomeric species of unknown molecular composition | little or no effect on subunit association/dissociation | did not appreciably change the free RAMP1 | 
